Experimental data as given in patent publication US20260258087A1, “PHARMACEUTICAL COMPOSITION FOR PREVENTING OR TREATING HEPATITIS B” (GWANGJU INSTITUTE OF SCIENCE AND TECHNOLOGY, priority 2022, published 2026).

How the values were obtained:
[1] = Caco-2 permeability assay; settings: human
Description: Caco-2 permeability assay was performed in triplicate. A 10 μM sample was dissolved in 1% (v/v) DMSO/HBSS solution, and 100 μM verapamil in Hank's Balanced Salt Solution (HBSS) buffer was used as a P-glycoprotein inhibitor. Inserts with Caco-2 cells were pre-incubated with verapamil for 30 min at 37° C., and then incubated for 2 hours at 37° C. without shaking. Efflux ratio was calculated as A to B permeability/B to A permeability. Aliquots (20 μL) were collected at each time point (0.5, 1, 1.5, and 2 hours). Experiments were performed in duplicate.

[2] = system: HBV; type: cell-based, Hepatitis B virus; settings: HepG2-NTCP cells
Description: HepG2 cells are representative cells that have immortalized human liver cells, and HepG2-NTCP cells refer to cells that overexpress sodium-taurocholate cotransporting polypeptide (NTCP). HepG2-NTCP cells are representative cells used to confirm the effect of inhibiting HBV host invasion.
HepG2-NTCP cells were grown in DMEM medium containing 10% FBS, penicillin (100 U), and streptomycin (0.1 mg/mL) at 37° C. with […]. […] The HepG2-NTCP cells were incubated with cyclic peptides in 12-well plates for 2 hours. Afterwards, the cells were infected by treating HBV particles (2×10^6 virus/mL) and cyclic peptide together and cultured for 3 hours. After removing the medium containing the virus, the cells were cultured for 16 hours. After the cells were treated with cyclic peptide, intracellular HBV DNA was extracted, purified, and quantified using a gene amplification test. To isolate HBV DNA from host cells, cells were lysed with cell lysis buffer (50 mM Tris-HCl, pH 7.5, 1 mM EDTA, 1% NP40) for 10 minutes on ice. […]. Micrococcal nuclease was inactivated by adding EGTA to a final concentration of […]. Afterwards, intracellular DNA of HBV was extracted using the G-SPIN™ set. […]
In vitro HBV entry inhibition assay based on quantification of intracellular DNA of HBV was performed. […]
The IC50 values are expressed as mean±SD. […]

Compound	Papp A→B at 2 h, 10 μM ([1]; Caco-2) [×10⁻⁶ cm/s]	Papp B→A at 2 h, 10 μM ([1]; Caco-2) [×10⁻⁶ cm/s]	efflux ratio at 2 h, 10 μM ([1]; Caco-2)	recovery at 2 h, 10 μM ([1]; Caco-2, A to B % recovery, A to B) [%]	recovery at 2 h, 10 μM ([1]; Caco-2, A to B with verapamil % recovery, A to B, 100 μM verapamil) [%]	recovery at 2 h, 10 μM ([1]; Caco-2, B to A % recovery, B to A) [%]	HBV inhibition (%) ([2]; 1 μM, intracellular HBV DNA, n=3)	IC50 ([2]; mean±SD, read-out: In vitro HBV entry inhibition (IC50)) [nM]
CN(C)C(=O)C(CCN1CCC(O)(c2ccc(Cl)cc2)CC1)(c1ccccc1)c1ccccc1 [loperamide]	2.9 ± 2	27.5 ± 1.6	10	88 ± 6	78 ± 1	85 ± 1	–	–
Cyclosporine A [CsA]	–	–	–	–	–	–	83 ± 8	400 ± 30
